# Patent publication US11116735B2, “Use of substituted benzylideneguanidine derivatives as synergists for polymyxin antibiotics” (GUANGZHOU INSIGHTER BIOTECHNOLOGY CO., LTD., priority 2015, dated 2021)
# Experiments:
# E. coli 3B-24 = assay: MIC by doubling dilution, colistin sulfate-susceptible E. coli 3B-24; assay type: cell-based, Escherichia coli; conditions: for In vitro minimum inhibitory concentration (MIC) of the substance alone: E. coli 3B-24, colistin sulfate-susceptible, derivatives as hydrochlorides; for In vitro MIC of colistin sulfate in the presence of the substituted benzylideneguanidine derivative: E. coli 3B-24, culture comprised 20.0 ppm of the derivative (hydrochloride), colistin sulfate serially diluted
# E. coli 3Y-9 = assay: MIC by doubling dilution, colistin sulfate-susceptible E. coli 3Y-9; assay type: cell-based, Escherichia coli; conditions: for In vitro minimum inhibitory concentration (MIC) of the substance alone: E. coli 3Y-9, colistin sulfate-susceptible, derivatives as hydrochlorides; for In vitro MIC of colistin sulfate in the presence of the substituted benzylideneguanidine derivative: E. coli 3Y-9, culture comprised 20.0 ppm of the derivative (hydrochloride), colistin sulfate serially diluted
# E. coli 5W-7 = assay: MIC by doubling dilution, colistin sulfate-susceptible E. coli 5W-7; assay type: cell-based, Escherichia coli; conditions: for In vitro minimum inhibitory concentration (MIC) of the substance alone: E. coli 5W-7, colistin sulfate-susceptible, derivatives as hydrochlorides; for In vitro MIC of colistin sulfate in the presence of the substituted benzylideneguanidine derivative: E. coli 5W-7, culture comprised 20.0 ppm of the derivative (hydrochloride), colistin sulfate serially diluted
# weanling piglets = assay: Synergy of derivatives and colistin sulfate in the feed for weanling piglets; assay type: in vivo, Duroc×Landrace×Large crossbred lean weanling piglets; conditions: creep feed with 20 ppm colistin sulfate and 150 ppm derivative (hydrochloride), ten days
# Procedure: 90 28-day-aged Duroc×Landrace×Large crossbred lean weanling piglets similar in weight were divided into 9 groups, 10 piglets in each group. For each group, colistin sulfate and/or various substituted benzylideneguanidine derivatives were added into the antibiotic-free creep feed. The piglets were given ad libitum access to feed and water during the experiment. Weight gain, feed efficiency and diarrhea rate of each group within ten days were recorded.
# E. coli 2G-7 = assay: MIC by doubling dilution, colistin sulfate-resistant E. coli 2G-7; conditions: for In vitro minimum inhibitory concentration (MIC) of the substance alone: E. coli 2G-7, colistin sulfate-resistant, derivatives as hydrochlorides; for In vitro MIC of colistin sulfate in the presence of the substituted benzylideneguanidine derivative: E. coli 2G-7, resistant, culture comprised 20.0 ppm of the derivative (hydrochloride)
# Procedure: (§1) In vitro minimum inhibitory concentrations of colistin sulfate against the strains where the cultures respectively comprised 20.0 ppm of the substituted benzylideneguanidine derivatives were also measured.
# E. coli 2S-19 = assay: MIC by doubling dilution, colistin sulfate-susceptible E. coli 2S-19; assay type: cell-based, Escherichia coli; conditions: for In vitro minimum inhibitory concentration (MIC) of the substance alone: E. coli 2S-19, colistin sulfate-susceptible, derivatives as hydrochlorides; for In vitro MIC of colistin sulfate in the presence of the substituted benzylideneguanidine derivative: E. coli 2S-19, culture comprised 20.0 ppm of the derivative (hydrochloride), colistin sulfate serially diluted
# E. coli 4D-6 = assay: MIC by doubling dilution, colistin sulfate-resistant E. coli 4D-6; conditions: for In vitro minimum inhibitory concentration (MIC) of the substance alone: E. coli 4D-6, colistin sulfate-resistant, derivatives as hydrochlorides; for In vitro MIC of colistin sulfate in the presence of the substituted benzylideneguanidine derivative: E. coli 4D-6, resistant, culture comprised 20.0 ppm of the derivative (hydrochloride)
# Procedure: as §1
# E. coli 3H-4 = assay: MIC by doubling dilution, colistin sulfate-resistant E. coli 3H-4; conditions: for In vitro minimum inhibitory concentration (MIC) of the substance alone: E. coli 3H-4, colistin sulfate-resistant, derivatives as hydrochlorides; for In vitro MIC of colistin sulfate in the presence of the substituted benzylideneguanidine derivative: E. coli 3H-4, resistant, culture comprised 20.0 ppm of the derivative (hydrochloride)
# Procedure: as §1
# E. coli 5F-1 = assay: MIC by doubling dilution, colistin sulfate-resistant E. coli 5F-1; conditions: for In vitro minimum inhibitory concentration (MIC) of the substance alone: E. coli 5F-1, colistin sulfate-resistant, derivatives as hydrochlorides; for In vitro MIC of colistin sulfate in the presence of the substituted benzylideneguanidine derivative: E. coli 5F-1, resistant, culture comprised 20.0 ppm of the derivative (hydrochloride)
# Procedure: as §1
SMILES,In vitro minimum inhibitory concentration (MIC) of the substance alone (E. coli 3B-24),In vitro MIC of colistin sulfate in the presence of the substituted benzylideneguanidine derivative (E. coli 3B-24),In vitro minimum inhibitory concentration (MIC) of the substance alone (E. coli 3Y-9),In vitro MIC of colistin sulfate in the presence of the substituted benzylideneguanidine derivative (E. coli 3Y-9),In vitro minimum inhibitory concentration (MIC) of the substance alone (E. coli 5W-7),In vitro MIC of colistin sulfate in the presence of the substituted benzylideneguanidine derivative (E. coli 5W-7),Average daily weight gain (weanling piglets),Diarrhea rate (weanling piglets),Feed conversion ratio (weanling piglets),In vitro minimum inhibitory concentration (MIC) of the substance alone (E. coli 2G-7),In vitro MIC of colistin sulfate in the presence of the substituted benzylideneguanidine derivative (E. coli 2G-7),In vitro minimum inhibitory concentration (MIC) of the substance alone (E. coli 2S-19),In vitro MIC of colistin sulfate in the presence of the substituted benzylideneguanidine derivative (E. coli 2S-19),In vitro minimum inhibitory concentration (MIC) of the substance alone (E. coli 4D-6),In vitro MIC of colistin sulfate in the presence of the substituted benzylideneguanidine derivative (E. coli 4D-6),In vitro minimum inhibitory concentration (MIC) of the substance alone (E. coli 3H-4),In vitro MIC of colistin sulfate in the presence of the substituted benzylideneguanidine derivative (E. coli 3H-4),In vitro minimum inhibitory concentration (MIC) of the substance alone (E. coli 5F-1),In vitro MIC of colistin sulfate in the presence of the substituted benzylideneguanidine derivative (E. coli 5F-1)
COc1ccc(C=NN=C(N)NN=Cc2ccc(OC)cc2)cc1 [Compound 1],>800 ppm,1.00 ppm,>800 ppm,1.00 ppm,>800 ppm,0.50 ppm,243 g,18%,1.529,>800 ppm,1.0 ppm,>800 ppm,1.00 ppm,>800 ppm,4.0 ppm,>800 ppm,2.0 ppm,>800 ppm,2.0 ppm
CCCCCCCCOc1ccc(C=NNC(=N)NN=Cc2ccc(OCCCCCCCC)cc2)cc1 [Compound 4],>800 ppm,1.00 ppm,>800 ppm,1.00 ppm,>800 ppm,0.50 ppm,239 g,19%,1.532,>800 ppm,4.0 ppm,>800 ppm,1.00 ppm,>800 ppm,16 ppm,>800 ppm,4 ppm,>800 ppm,8.0 ppm
CCC(CC)Oc1ccc(C=NN=C(N)NN=Cc2ccc(OC(CC)CC)cc2)cc1 [Compound 5],>800 ppm,2.00 ppm,>800 ppm,2.00 ppm,>800 ppm,1.00 ppm,231 g,25%,1.565,>800 ppm,8 ppm,>800 ppm,1.00 ppm,>800 ppm,32 ppm,>800 ppm,8 ppm,>800 ppm,16 ppm
N=C(NN=Cc1ccc(OCc2ccccc2)cc1)NN=Cc1ccc(OCc2ccccc2)cc1 [Compound 7],>800 ppm,2.00 ppm,>800 ppm,2.00 ppm,>800 ppm,1.00 ppm,240 g,16%,1.576,>800 ppm,8 ppm,>800 ppm,2.00 ppm,>800 ppm,32 ppm,>800 ppm,8 ppm,>800 ppm,8 ppm
N=C(N/N=C/c1ccc(Cl)cc1)N/N=C/c1ccc(Cl)cc1 [Compound 8],>800 ppm,1.00 ppm,>800 ppm,1.00 ppm,>800 ppm,0.50 ppm,220 g,33%,1.608,>800 ppm,4 ppm,>800 ppm,1.00 ppm,>800 ppm,16 ppm,>800 ppm,4 ppm,>800 ppm,8 ppm
